Data as given in article PMC12503906, “Novel Pyrazolo [1,5‐a]−1,3,5‐Triazine Derivatives as CDK7 Inhibitors: Synthesis and Biological Insights in Pancreatic Ductal Adenocarcinoma Models” (Chemmedchem, 2025).
Where two headings read alike, the source gives them in different places.

What was measured:
Type in all cases: cell-based
PANC‐1 = assay: SRB chemosensitivity assay, PANC‐1 cells; details: Homo sapiens, read-out: IC50 PANC‐1
Experimental: (§1) Three lines of immortalized PDAC cells were selected as representative phenotypes: mesenchymal (PATU‐T), quasimesenchymal (PANC‐1), and an epithelial clone of SUIT 2 cells (SUIT 2.28). Cells were cultured in noncoated T‐75 and T‐25 flasks under adherent conditions, using 1× DMEM (Gibco, 41,966,029) for PATU‐T and RPMI (Gibco, 21,875,034) for SUIT 2.28 and PANC‐1, both supplemented with 10% NBCS and 1% P/S. Additional employed models were the PDAC3 cells, a primary cell culture, the PSCs, which were immortalized healthy pancreatic cells, and the PATU‐T‐GR, which was a gemcitabine resistant model of PATU‐T. PDAC3 and PSCs were cultivated using complete RPMI medium, while PATU‐T‐GR required complete DMEM medium. For seeding, cells were detached with Trypsin‐EDTA (0.05%) (GibcoTM, 25,300–096) and were consequently counted using the Automated Cell Counter (Luna‐II, Westburg). Cells were then plated on 96‐ or 6‐well plates depending on the planned experiment.
(§2) The Sulforhodamine B (SRB) chemosensitivity assay was used to measure cytotoxicity and cell proliferation post drug treatment. At day 0, 3–6 × 10^3 cells were seeded in a 96‐well plate, depending on the cell line. At day 1, cells were attached and ready to be treated. For the calculation of the IC50, drug dilutions for the compounds 1b, 1c, 1d, 1e, 1g, 1hr, 1i, 1j, and LDC4297 (MedChemExpress, HY‐12,653) were prepared in dilution trays and eight different concentrations were included. These were added in triplicates to the cells, which were then incubated for […] at 37 °C in 5% CO2. During day 1, the control plate was fixed with 50% Trichloroacetic acid (TCA), as intended to be the baseline plate used for the normalization of the data. 72 h post‐treatment, the cells were fixed with TCA, and placed at 4 °C for about 2 h. The plates were then washed with distillated water and left to dry under the hood with ventilation. Subsequently, plates were stained with 0.4% SRB for 15 min and washed with 1% acetic acid to remove excess stain. Once dried again, the protein‐bound SRB was dissolved in 10 mM TRIS, and the plates were placed on a shaker for 10 min per plate. Lastly, the absorbance was measured at 492 nm with a spectrophotometer (Synergy HT, BioTek). The absorbance data obtained were normalized to the day 1 control, and the percentage of cell growth in relation to the control was calculated using the following formula. (1) %Cell growth=Mean OD treatment−Mean OD day0/Mean OD control−Mean OD day0×100
(§3) The percentage of proliferation and their respective standard deviations were used to perform statistical analysis in GraphPad Prism software v 10 (GraphPad Software, San Diego, CA). Data were normalized to the day 0 control and to their own untreated 72 h control. These were transformed into logarithmic data, and log(inhibitor) versus response analysis was performed for obtaining the IC50 values per cell lines. Each experiment was conducted in triplicates.

PDAC3 = assay: SRB chemosensitivity assay, primary PDAC3 cells
Experimental: as §1, §2, §3

SUIT 2.28 [1] = assay: SRB chemosensitivity assay, SUIT 2.28 cells; details: read-out: IC50 SUIT 2.28
Experimental: as §1, §2, §3

SUIT 2.28 [2] = assay: Annexin V apoptosis assay, SUIT 2.28; details: 1× and 4 × IC50
Experimental: In order to investigate the apoptotic properties of the compounds 1b and 1g, the Annexin V apoptosis assay was performed. Annexins are calcium‐dependent phospholipid binding proteins, which are able to bind to phosphatidylserine (PS). The externalization of PS residues on the outer membrane of apoptotic cells can be detected by Annexin V.
For this assay, cells were seeded in a 96‐well plate at a concentration of 13.5 × 10^3 and 4.5 × 10^3 /well respectively for the 24 and 72 h experiments. The next day cells were treated with compounds 1b and 1g at 1 × IC50 and 4 × IC50 concentrations. The apoptosis assay was performed 24 and 72 h post‐treatment following the BD Pharmingen FITC Annexin V Apoptosis Detection Kit I (BD Biosciences, 556,547). The supernatant was aspirated, and cells were washed with phosphate‐buffered saline (PBS). Cells were consequently treated with binding buffer BBA + Annexin V (1:100) and were incubated in the dark at RT for 10 min. The supernatant was removed, and the cells were washed with BBA (1:10). Cells were then incubated with BBA + PI (1:100) and were immediately read with the spectrophotometer at ex. 485/ em. 535. Two different programs were used to read the Annexin V and the PI absorbance. Lastly, 100 µL of PBS were added to each well before being fixed with TCA. This was followed by the SRB assay to standardize fluorescence data according to cell count. Data were exported into GraphPad Prism 10 for statistical analysis.

PATU‐T spheroids = assay: PATU‐T 3D spheroids, resazurin viability; details: three cell densities, 1 × IC50 and 4 × IC50
Experimental: The modulation of the growth of spheroids was utilized as a method to assess the effect of the novel compounds 1b and 1g in a 3D structure. The PATU‐T cell line was employed to make such a structure. Agarose 1.5% is a solid gel at RT; thus, in order to become a liquid solution, it was heated up into a microwave for about 30 s—1 min, depending on when it starts boiling. Once heated up, the bottle containing the agarose was wrapped in aluminum foil, and it was allowed to maintain the temperature and the liquid state of the agarose. Each well of a flat‐bottom 96‐well plate was coated with 70 µL of agarose. Plates were left to cool down and dried for 1 h at RT. Afterward, 7 × 10^3, 1 × 10^4, and 2 × 10^4 cells/well (200 µL) were seeded in order to identify the optimal amount of cell for the spheroid formation. Finally, the plates were centrifuged at 1200 rpm for 6 min and placed in the incubator for 7 days at 37 °C, 5% CO2. After one week, spheroids were imaged at day 0 h with the inverted routine microscope Nikon Eclipse Ts2 and were consequently treated with compounds 1b and 1g at 4 × IC50 and 1 × IC50. In order to assess the effects of the treatment, images were then taken every 3 days, and medium along with treatment was refreshed at the same interval. […] Cells were then collected, counted, and reseeded in 96‐well plates. […] Absorbance was read at 570 nm.

In the case of `Nc1ncnc2cc(-c3c[nH]c4ccc(Br)cc34)nn12` [Compound 1b, 7‐(5‐Bromo‐1H‐indol‐3‐yl)pyrazolo[1,5‐a][1,3,5]triazin‐4‐amine], the IC50 (PANC‐1; PANC-1, SRB, 72 h of treatment, average ± SEM, triplicate) is reported as 4.3 ± 0.8 µM, the IC50 (PDAC3; PDAC-3, SRB, primary cell line, average ± SEM, triplicate, read-out: IC50 PDAC3) is reported as 1.27 µM and the IC50 (PDAC3; SRB, primary cell line, average ± SEM, triplicate, read-out: IC50 PDAC3) is reported as 1.3 ± 0.2 µM. For the same compound, the IC50 (SUIT 2.28 [1]; SRB, 72 h of treatment, average ± SEM, triplicate) was 0.6 ± 0.1 µM, the apoptotic index (SUIT 2.28 [2]; SUIT 2.28, 24 h) was “below 1.5” and the apoptotic index (SUIT 2.28 [2]; SUIT 2.28, 72 h) was “higher apoptotic index”. For the same compound, the “cell viability compared to untreated controls (resazurin)” value (PATU‐T spheroids) was “significantly reduced viability”.

Compound `Cn1cc(-c2cc3ncnc(N)n3n2)c2cc(Br)ccc21` [Compound 1g, 7‐(5‐Bromo‐1‐methyl‐1H‐indol‐3‐yl)pyrazolo[1,5‐a][1,3,5]triazin‐4‐amine] has an IC50 (PANC‐1; PANC-1, 72 h) of 2.9 ± 0.8 µM, an IC50 (PDAC3; PDAC-3, read-out: IC50 PDAC3, SRB, primary cell line, average ± SEM, triplicate) of 0.684 µM and an IC50 (PDAC3; read-out: IC50 PDAC3, SRB, primary cell line, average ± SEM, triplicate) of 0.7 ± 0.1 µM. The IC50 (SUIT 2.28 [1]; 72 h) was 0.2 ± 0.1 µM, the apoptotic index (SUIT 2.28 [2]; SUIT 2.28, 24 h) was “below 1.5” and the apoptotic index (SUIT 2.28 [2]; SUIT 2.28, 72 h) was “higher apoptotic index”. For the same compound, the “cell viability compared to untreated controls (resazurin)” value (PATU‐T spheroids) was “significantly reduced viability”.
